We go through one molecule from patent publication US20050201991A1, “Stem cell culture” (priority 2002, published 2005).

The assay deals with NTERA2 human EC cells. Nature of the assay: Two fluorochrome flow cytometric analysis of FGF-4 reporter with SSEA-3 labelling on differentiation. Format: cell-based. The note with it: retinoic acid treated versus undifferentiated NTERA2 cells. The procedure: Variations of these vectors including pTK-GFP, p5FGF4EN-GFP and p5FGF4EN-Bact-GFP with WES site linking an antibiotic selection marker, for example puromycin or neonmycin resistance, to the expression of GFP were also created (IRESantibiotic selection marker sequences were inserted in the Notl cloning site immediately 3′ to the GFP sequence).
The human embryonal carcinoma (EC) cell line, NTERA2 cl D1, was cultured in DMEM with 10% fetal calf serum as previously described (Andrews et al 1984). […]
Human EC and ES cells were transfected by the same protocol: After incubation at 37° C. overnight the cells were transfected, following the manufacturer's protocol, as follows: 9.5 μg DNA was diluted into 300 μl 0.15 M NaCl and mixed with 21 μl ExGen 500 (MBI Fermentas) and vortexed. […] After incubating for 6-12 hours at 37 C, the medium was removed and the cells fed with fresh medium and fluorescence observed by microscopy under UV epi-illumination.
Cell surface antigen expression of cultured cells was assessed by indirect immunofluorescence detected by flow cytofluorimetry, after harvesting the cultures as single cell suspensions using trypsin-EDTA, as described previously (Andrews et al 1987, Fenderson et al 1987). […] In some experiments, cells that were either positive or negative for SSEA3 and SSEA1 were isolated by fluorescence activated cell sorting (Andrews et al 1987).
In general terms: Flow cytometry measures light scatter and fluorescence of single cells or particles in a stream.

On to `CC1=C(/C=C/C(C)=C/C=C/C(C)=C/C(=O)O)C(C)(C)CCC1` [retenoic acid, all-trans-retinoic acid], for which the SSEA-3 expression result is recorded as “reduction”. In addition, the “GFP expression from FGF-4 reporter” value (p5FGF4EN-GFPIP reporter) was “greatly reduced”.
